Source: patent publication US10966994B2, “Thromboxane receptor antagonists” (ATXA THERAPEUTICS LIMITED, priority 2015, dated 2021)

Key:
[1] = system: purinergic (ADP) receptors; test: Specificity testing, purinergic (ADP) receptor signaling
EP4 receptor = EP4 receptor (Homo sapiens, UniProt P35408); test: Specificity testing, EP4 receptor signaling; type: cell-based
Protocol: There is no or minimal inhibition of the majority of the non-TP-mediated signaling observed in the presence of either NTP42 & NTP48. Where there is inhibition of signaling, it is observed at the 10 μM concentration only. […] Compared to NTP42, NTP48 has less of an effect on the signaling of the non-TP prostanoid receptors and therefore, may be considered more favorable in this context.

FP1 receptor = FP1 receptor (Homo sapiens, UniProt P43088); test: Specificity testing, FP1 receptor signaling; type: cell-based
EP2 receptor = EP2 receptor (Homo sapiens, UniProt P43116); test: Specificity testing, EP2 receptor signaling; type: cell-based
TPβ = molecular target: T1, TPβ (Homo sapiens, UniProt P21731); test: 8-iso-PGF2α-mediated calcium mobilization in HEK.TPβ cells; type: cell-based; conditions: 10 μM 8-iso-PGF2α, estimated IC50, read-out: IC50 values for inhibition of 8-iso-PGF2α-mediated [Ca2+]i mobilization, TPβ
T1 construct: expressed in transfected cells; host or cells: HEK 293 (HEK.TPβ, isolate EM #8)
From the text: Effect of NTP42-NTP48 on 8-iso-PGF2α-mediated Calcium Mobilization In addition, to assessment of the compounds to antagonise U46619-mediated responses, the ability of NTP42 & NTP43 to inhibit the partial TP agonist 8-iso-PGF2α has been examined through calcium mobilization assays in HEK.TPα and HEK.TPβ cells.
Data is presented as the mean (±S.E.M.) percentage of the agonist-induced response in vehicle-treated cells (Percentage of Control; %) and represents data from at least 3 independent experiments were cells were treated in duplicate, except NTP48.

EP3 receptor = molecular target: T2, EP3 receptor (Homo sapiens, UniProt P43115); test: Specificity testing, EP3 receptor signaling; type: cell-based
T2 sequence (P43115 1-390): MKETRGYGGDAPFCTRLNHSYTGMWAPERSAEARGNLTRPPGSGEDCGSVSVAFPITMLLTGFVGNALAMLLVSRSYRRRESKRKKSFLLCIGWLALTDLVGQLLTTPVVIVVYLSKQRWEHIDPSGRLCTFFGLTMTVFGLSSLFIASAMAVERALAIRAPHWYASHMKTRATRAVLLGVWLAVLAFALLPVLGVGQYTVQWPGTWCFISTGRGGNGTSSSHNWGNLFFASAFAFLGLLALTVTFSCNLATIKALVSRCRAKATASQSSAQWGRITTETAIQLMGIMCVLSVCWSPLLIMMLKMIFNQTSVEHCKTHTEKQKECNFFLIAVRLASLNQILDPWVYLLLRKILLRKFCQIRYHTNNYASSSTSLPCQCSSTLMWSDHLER

human platelets = test: U46619-mediated platelet aggregation ex vivo (PAP-8E aggregometer); type: cell-based; conditions: for IC50: Platelet, human PRP, 10 min pre-incubation, 1 μM U46619, estimated IC50, read-out: IC50 values for Inhibition of U46619-Mediated Platelet Aggregation
Protocol: In order to evaluate NTP42-NTP49 in a second independent assay, the effect of the compounds on U46619-mediated platelet aggregation assays was examined. Clearly, from an efficacy point of view, this is an important assay and, physiologically, the more relevant with respect to the therapeutic target.
The compounds were tested in side-by-side assays with the previously identified key lead compound TP20 using the PAP-8E platelet aggregometer.
(§1) PRP was prepared from blood taken from healthy volunteers into syringes containing 3.8% sodium citrate and 10 μM indomethacin such that the final ratio of anticoagulant to blood was 1:9. Aliquots of PRP (300 μl) were pre-incubated for 10 min with the TP antagonists, TP20, NTP42, NTP43, NTP44, NTP45, NTP47, NTP48 and NTP49, where 2-fold serial dilutions from 0.25 μM was prepared for each, prior to stimulating platelets with 1 μM U46619, incubated at 37° C., with stirring. The results are presented as Percentage Aggregation (mean±S.E.M.), as determined by changes in light transmission over time using the PAP-8E Platelet Aggregation Profiler and represents data from 4 independent experiments (n=4).
as §1, with “TP20, NTP4,” for “TP20,”, “NTP42, NTP43” for “NTP42, NTP43, NTP44, NTP45, NTP47, NTP48”, “and NTP48,” for “and NTP49,”, “from 1” for “from 0.25”, “from at least 3” for “from 4”, “experiments (n≥3).” for “experiments (n=4).”

EP4 receptor, sequence (P35408 whole entry): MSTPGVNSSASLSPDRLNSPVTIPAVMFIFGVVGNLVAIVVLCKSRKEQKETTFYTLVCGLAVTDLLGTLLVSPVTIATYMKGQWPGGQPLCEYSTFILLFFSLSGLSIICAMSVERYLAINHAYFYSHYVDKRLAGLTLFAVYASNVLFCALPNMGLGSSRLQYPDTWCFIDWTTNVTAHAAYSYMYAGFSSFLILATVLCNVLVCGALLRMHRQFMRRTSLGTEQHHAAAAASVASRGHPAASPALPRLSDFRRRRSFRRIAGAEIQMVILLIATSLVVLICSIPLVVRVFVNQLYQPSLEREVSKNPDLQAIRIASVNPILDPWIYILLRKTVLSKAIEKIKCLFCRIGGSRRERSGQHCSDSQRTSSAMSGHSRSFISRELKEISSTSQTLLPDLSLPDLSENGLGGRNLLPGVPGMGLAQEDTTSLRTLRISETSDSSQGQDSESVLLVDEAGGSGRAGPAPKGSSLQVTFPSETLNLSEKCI
FP1 receptor, sequence (P43088 whole entry): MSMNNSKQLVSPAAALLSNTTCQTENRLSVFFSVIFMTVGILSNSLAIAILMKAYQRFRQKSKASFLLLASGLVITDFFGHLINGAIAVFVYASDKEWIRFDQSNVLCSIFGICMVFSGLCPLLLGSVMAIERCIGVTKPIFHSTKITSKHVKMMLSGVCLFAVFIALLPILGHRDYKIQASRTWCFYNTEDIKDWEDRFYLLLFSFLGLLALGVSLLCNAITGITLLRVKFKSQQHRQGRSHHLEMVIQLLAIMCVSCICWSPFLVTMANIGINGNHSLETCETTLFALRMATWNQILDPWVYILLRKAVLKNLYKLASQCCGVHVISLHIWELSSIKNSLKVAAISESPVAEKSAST
EP2 receptor, sequence (P43116 whole entry): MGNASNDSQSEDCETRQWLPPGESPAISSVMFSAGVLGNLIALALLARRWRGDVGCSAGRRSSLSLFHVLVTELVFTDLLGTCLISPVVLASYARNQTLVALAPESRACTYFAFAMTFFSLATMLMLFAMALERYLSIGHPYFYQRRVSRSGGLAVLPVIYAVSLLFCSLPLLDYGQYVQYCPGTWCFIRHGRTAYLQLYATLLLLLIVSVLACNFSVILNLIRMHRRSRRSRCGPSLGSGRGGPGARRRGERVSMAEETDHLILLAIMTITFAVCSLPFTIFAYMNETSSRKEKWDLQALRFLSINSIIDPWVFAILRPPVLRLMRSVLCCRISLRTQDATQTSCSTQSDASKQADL
T1 sequence (P21731 1-407 isoform P21731-2): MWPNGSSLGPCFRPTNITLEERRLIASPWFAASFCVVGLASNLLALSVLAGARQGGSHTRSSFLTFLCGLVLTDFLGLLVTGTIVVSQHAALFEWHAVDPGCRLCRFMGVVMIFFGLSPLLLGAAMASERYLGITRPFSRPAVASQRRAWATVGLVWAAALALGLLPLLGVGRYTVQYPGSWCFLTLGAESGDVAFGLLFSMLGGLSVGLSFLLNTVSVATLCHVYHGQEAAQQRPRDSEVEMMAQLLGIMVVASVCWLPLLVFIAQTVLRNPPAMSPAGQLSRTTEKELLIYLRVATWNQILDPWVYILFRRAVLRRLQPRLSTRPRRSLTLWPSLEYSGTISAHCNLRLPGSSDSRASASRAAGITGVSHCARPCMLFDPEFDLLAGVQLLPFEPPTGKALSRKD

Compound: CC(C)(C)NC(=O)NS(=O)(=O)c1cc(C#N)ccc1Oc1cccc(-c2ccc(OC(F)F)cc2)c1 [NTP42]
- effect on signaling through purinergic (ADP) receptors [1]: neither NTP42, NTP43 nor NTP48 exhibited any effect
- toxicity (Toxicity): minimal toxicity
- effect on the EP4 receptor (EP4 receptor): no effect
- percentage reduction in responses, EP4 (EP4 receptor; maximal inhibition, at 10 μM only): 40%
- effect on the FP1 receptor (FP-mediated signaling) (FP1 receptor): no effect
- effect on the EP2 receptor (EP2 receptor): no effect
- IC50 (TPβ): 8 ± 1 nM
- effect on the EP3 receptor (EP3 receptor): no effect
- IC50 (human platelets): 10.1 ± 1.07 nM

Compound: COc1ccc(-c2cccc(Oc3ccc([N+](=O)[O-])cc3S(=O)(=O)NC(=O)NC(C)(C)C)c2)cc1 [TP20, reference compound]
- effect on signaling through purinergic (ADP) receptors [1]: like TP20 and NTP4, neither NTP42, NTP43 nor NTP48 exhibited any effect
- effect on the EP4 receptor (EP4 receptor): like TP20 and NTP4, neither NTP42, NTP43 nor NTP48 exhibited any effect
- effect on the FP1 receptor (FP-mediated signaling) (FP1 receptor): like TP20 and NTP4, neither NTP42, NTP43 nor NTP48 exhibited any effect
- effect on the EP2 receptor (EP2 receptor): like TP20 and NTP4, neither NTP42, NTP43 nor NTP48 exhibited any effect
- IC50 (TPβ): 17 ± 2.12 nM
- effect on the EP3 receptor (EP3 receptor): like TP20 and NTP4, neither NTP42, NTP43 nor NTP48 exhibited any effect
- inhibition of U46619-mediated aggregation of human platelet ex vivo (in words) (human platelets; 1 μM U46619): potently inhibit
- IC50 (human platelets): 4.62 ± 0.72 nM

Compound: CC(C)(C)NC(=O)NS(=O)(=O)c1cc(C#N)ccc1Oc1cccc(-c2ccc(OC(F)(F)F)cc2)c1 [NTP43]
- effect on signaling through purinergic (ADP) receptors [1]: neither NTP42, NTP43 nor NTP48 exhibited any effect
- toxicity (Toxicity): minimal toxicity
- effect on the EP4 receptor (EP4 receptor): not to exhibit any effect
- effect on the FP1 receptor (FP-mediated signaling) (FP1 receptor): not to exhibit any effect
- effect on the EP2 receptor (EP2 receptor): not to exhibit any effect
- IC50 (TPβ): 9 ± 1.6 nM
- effect on the EP3 receptor (EP3 receptor): not to exhibit any effect
- IC50 (human platelets): 22 ± 2.03 nM

Compound: CN(C)C(=O)c1ccc(-c2cccc(Oc3ccc(C#N)cc3S(=O)(=O)NC(=O)NC(C)(C)C)c2)cc1 [NTP48, 4-[3-[2-(tert-Butylcarbamoylsulfamoyl)-4-cyano-phenoxy]phenyl]-N,N-dimethyl-benzamide]
- effect on signaling through purinergic (ADP) receptors [1]: neither NTP42, NTP43 nor NTP48 exhibited any effect
- toxicity (Toxicity): minimal toxicity
- effect on the EP4 receptor (EP4 receptor): no effect
- effect on the FP1 receptor (FP-mediated signaling) (FP1 receptor): no effect
- effect on the EP2 receptor (EP2 receptor): no effect
- IC50 (TPβ): 15.4 ± 2.16 nM
- effect on the EP3 receptor (EP3 receptor): no effect
- IC50 (human platelets): 9.45 ± 1.38 nM

Compound: COc1ccc(-c2cccc(Oc3ccc(C#N)cc3S(=O)(=O)NC(=O)NC(C)(C)C)c2)cc1 [NTP4, reference compound]
- effect on signaling through purinergic (ADP) receptors [1]: like TP20 and NTP4, neither NTP42, NTP43 nor NTP48 exhibited any effect
- effect on the EP4 receptor (EP4 receptor): like TP20 and NTP4, neither NTP42, NTP43 nor NTP48 exhibited any effect
- effect on the FP1 receptor (FP-mediated signaling) (FP1 receptor): like TP20 and NTP4, neither NTP42, NTP43 nor NTP48 exhibited any effect
- effect on the EP2 receptor (EP2 receptor): like TP20 and NTP4, neither NTP42, NTP43 nor NTP48 exhibited any effect
- IC50 (TPβ): 58 ± 6.31 nM
- effect on the EP3 receptor (EP3 receptor): like TP20 and NTP4, neither NTP42, NTP43 nor NTP48 exhibited any effect
- IC50 (human platelets): 21.3 ± 1.01 nM
